Consider two substances from publication PMC5602538, “Assessment of the Drug Interaction Potential of Unconjugated and GalNAc3-Conjugated 2′-MOE-ASOs” (Molecular Therapy. Nucleic Acids, 2017).

For one data set, the system named is T1, OATP1B3.
T1 construct: expressed in transfected cells; host or cells: MDCK-II
As to the kind of experiment: OATP1B3 inhibition study in MDCK cells. Type of data set: in vitro ADME. The conditions noted are these: 100 μM ASO, 2 μM CCK-8. As for the experimental part: A 96-well cell culture plate containing a monolayer of MDCK-II cells grown on a permeable support and a corresponding receiver tray was used. The basolateral compartment of the culture plate and wells were washed with warm HBSS three times, with wells of the culture plate serving as the apical compartment. The wash was aspirated by adding 150 μL of 37°C HBSS to both compartments. Plates were incubated at 37°C with orbital shaking at 60 rpm for 15 min for OAT1, OAT3, OCT1, OCT2, OATP1B1, and OATP1B3 (±5 min). The pre-incubation buffer from both compartments was aspirated and 150 μL of the following was added to the basal compartment. […] Samples containing probe substrate were added to 200 μL of scintillation fluid and counted on a 1450 Microbeta (PerkinElmer), whereas samples containing the test article were kept frozen. Test article concentrations, including control samples, were evaluated by an LC-MS method.
Signal to noise for probe substrates was calculated by dividing the uptake of the probe substrate in transporter-expressing cells by the uptake of probe substrate in control cells not expressing the transporter of interest. […]

The next data set has as its system CYP3A4. The following applies: ASO 100 μM, human hepatocytes 72 hr, vs PBS 1% vehicle, mean ± SD of triplicate. As for the experimental part:
Upon receipt, sandwich-cultured cryopreserved human hepatocytes (with Matrigel) plated on collagen-coated 24-well plates were inspected under a microscope for general morphology and viability. Fresh culture medium (OptiCulture Hepatocyte Media) was added to each plate that passed the visual inspection. The plates were then placed in an incubator set to 37°C with 5% carbon dioxide (CO2) for overnight acclimation. […] During this time, cells in parallel wells were also treated with 50.0 μM omeprazole (inducer of CYP1A2), 1,000 μM phenobarbital (inducer of CYP2B6), or 10.0 μM rifampicin (inducer of CYP3A4) in triplicate, respectively.
The plates were then incubated at 37°C with 5% CO2 for 60 min. […] Aliquots of the supernatants were analyzed by LC-MS/MS for the formation of acetaminophen, hydroxyl-bupropion, or hydroxyl-midazolam as markers for enzyme activity of CYP1A2, CYP2B6, and CYP3A4, respectively.
The activity of each CYP enzyme was measured by comparing the peak area ratio of the corresponding product to the peak area ratio of the internal standard. The fold induction was calculated by dividing the peak area ratio of each individual well from the treatment group by the mean of the peak area ratios obtained from the vehicle control wells. […] The ΔCƬ was calculated as follows: ΔCƬ = CƬ (CYP) − CƬ (GAPDH). […] The ΔΔCƬ was calculated as follows: ΔΔCƬ = Δ CƬ (Treatment) − Δ CƬ (Vehicle). […]

The next data set has as its system T2, BSEP.
T2 construct: purchased Life Technologies; host or cells: Sf9 cells (membrane vesicles)
As to the kind of experiment: BSEP inhibition study in Sf9 membrane vesicles. Type of data set: in vitro ADME. The following applies: 100 μM ASO, 1 μM taurocholate. Here is the method: The test system included a 96-well flat bottom plate containing a suspension of vesicles and a 96-well glass fiber filtration plate. Transport experiments were initiated with the addition of Mg-ATP (for ATP-dependent BSEP uptake) or AMP (non-ATP-dependent uptake) to appropriate wells. Preparation of the flat-bottom plates included incubation with blocking buffer for 60 min at 37°C with orbital shaking at 120 rpm. After 60 min, the blocking buffer was completely removed and assay uptake buffer solutions were added. For BSEP inhibition studies, solutions contained 1 μM [^3H]-taurocholic acid as a substrate and either assay vehicle, test article (at 100 μM), or reference inhibitor (300 μM rifampicin). For BSEP substrate studies, solutions contained either 1 μM [^3H]-taurocholic acid or 10 μM test article. […] These samples were counted using a 1450 Microbeta (Perkin-Elmer). […] The test article was quantitated by LC-MS.
Signal to noise for the BSEP probe substrate was calculated by dividing the uptake of the probe substrate in BSEP-expressing vesicles in the presence of ATP by the uptake of the BSEP substrate in the vesicles in the presence of AMP. Percent inhibition in the presence of the test article or the reference inhibitors was calculated as: %inhibition=100−(100×(ATP−dependent,transportor−mediatedaccumulation)withinhibitor/(ATP−dependent,transportor−mediatedaccumulation)withoutinhibitor).

{GalNAc3} = trishexylamino-C6 triantennary GalNAc conjugate; e = 2'-O-(2-methoxyethyl) (MOE); d = 2'-deoxy (DNA)

Consider “ISIS 681257: 20-mer 2′-MOE gapmer PS/PO mixed backbone ASO conjugated to 5′-trishexylamino GalNAc3, targets Lp(a), sequence TGCTCCGTTGGTGCTTGTTC (5' {GalNAc3}, sugars by position and backbone not given here; 2'-MOE gapmer with mixed PS/PO backbone)”, for which the “Enhancement of probe substrate uptake, OATP1B3” value with OATP1B3 was 38.3%. The “Fold induction of CYP3A4 enzyme activity” value in the data set with CYP3A4 came out at 1.67 ± 0.310 fold.

As to “ISIS 304801: 20-mer (5-10-5) 2′-MOE gapmer PS backbone antisense inhibitor of apoC-III, sequence AGCTTCTTGTCCAGCTTTAT (sugars from the 5' end e5 d10 e5, all phosphorothioate, methylation of C not given here)”, in the data set with BSEP, the “Enhancement of probe substrate uptake, BSEP” value came out at 21.0%.
